The values below come from US12318385B2, “Pharmaceutical composition comprising PARP inhibitors” (Jiangsu Hengrui Medicine CO., LTD., priority 2018, dated 2025).

This data set is described as follows: Solubility of compound represented by formula I in different solvents. It is filed as physicochemical. The following applies: for solubility at 30 min: thermodynamic from solid, read-out: Approximate Solubility. As to the method:
Referring to tests under the General Notices, Volume II, Chinese Pharmacopoeia 2010, excessive compounds represented by formula I which were grinded to fine powder were weighed and transferred in a certain amount of solvent (25° C.±2° C.), and shaken vigorously for 30 s every 5 min. The dissolution of the drug was observed within 30 min. Then the solution was filtered, the initial filtrate was discarded, and the concentration of the successive filtrate was tested. The solubility was calculated.

Where two headings read alike, the source gives them in different places.

Regarding `O=C(c1cc(Cc2n[nH]c(=O)c3ccccc23)ccc1F)N1CCn2nc(C(F)(F)F)nc2C1` [Compound represented by formula I], the “Solubility (descriptive term)” value runs as follows: (Acetone) “slightly soluble”; (Anhydrous Ethanol) “very slightly soluble”; (Tetrahydrofuran) “slightly soluble”; (conventional aqueous solvents) “practically insoluble”. In addition, the solubility at 30 min was found to be 0.85 µg/mL (aqueous buffer, Acetate Buffer pH 4.5, 25° C.±2° C.); 0.59 µg/mL (aqueous buffer, Phosphate Buffer pH 6.8, 25° C.±2° C.); 19.5 µg/mL (aqueous with cosolvent or surfactant or cyclodextrin, 5% Polysorbate 80 Aqueous Solution, 25° C.±2° C.); 4960 µg/mL (organic solvent or mixture, Acetone, 25° C.±2° C.); 458 µg/mL (organic solvent or mixture, Anhydrous Ethanol, 25° C.±2° C.); 8550 µg/mL (organic solvent or mixture, Tetrahydrofuran, 25° C.±2° C.). Under “simulated gastric fluid, 0.1 mol/L Hydrochloric Acid, 25° C.±2° C.”, the solubility at 30 min is 0.78 µg/mL.
